Measured values: patent US12325690B2, “Compounds for the reducing lipotoxic damage” (Mayo Foundation for Medical Education and Research, priority 2017, dated 2025)
Entries after “also recorded” stand apart in the source; their conditions may differ.

How the values were obtained:
[1] = tested on: Propionibacterium acnes (Strain VPI0389, ATCC); assay: Lipolysis / FFA generation by P. acnes culture; type: cell-based; details: broth FFA generation and spirit blue agar
Method: For medium, 2.0 g of Casein hydrolysate enzymatic digest (Cat #12855, Affymetrix Inc, Ohio, USA), 1.0 g of Yeast extract (Cat #61180-5000, Acros organics, New Jersey, USA) and 0.03 g of Victoria Blue B (Cat #sc-216055, Santa Crutz Biotechnology Inc, California, USA) were dissolved completely in 200 ml of double distilled water with mild heating. The mixed solution was sterilized by autoclaving at 15 lbs pressure (121° C.) for 15 min. The autoclaved solution allowed to cool down to 50° C., then 6 ml of emulsified lipase substrate slowly added with continuous stirring to get an even distribution and stored at 4° C. for P. acnes culture.
Lipase substrate preparation: Lipase substrate was prepared by mixing 200 μl of Tween 80 (Cat #P4780, Sigma, St louis, USA) in 100 ml of warm double distilled water and 25 ml of Cotton seeds oil (Cat #C0145, Spectrum chemical, California, USA). […]
A small part of lyophilized Propionibacterium acnes (Strain VPI0389, ATCC) was added to the medium and allowed to grow at 37° C. for 48 h in a BD GasPak EZ standard incubation container (Cat #260671, Beckton Dickinson, MD, USA) with two anaerobe Sachets (Cat #260683, Beckton Dickinson, MD, USA) which maintained the anaerobic condition within the container. After 48 h of culture, bacterial count was measured by turbidity (OD600 nm) method. […]

[2] = tested on: acinar cells incubated with GTL; assay: GTL induced acinar injury (LDH leakage); type: cell-based; details: 10 micromolar
Description: (§1) These lipases form 15-30% of pancreatic lipases.

[3] = tested on: Mouse pancreatic acinar cells; assay: Toxicity study in pancreatic acinar cells (ATP levels, LDH leakage); type: cell-based; details: 4 hours, 20-200 micromolar range
Method: Toxicity studies of the relevant compounds were also performed using by diluting the original ethanol stock 200 mM into the incubation medium for acinar cells (HEPES buffer, pH 7.4, as described by Navina et al) 600 micromolar stock solutions of the compounds in 0.3% ethanol in PBS. These were added to acinar cells at ⅓ dilutions starting at 200 micromolar. Mouse pancreatic acinar ATP levels and LDH leakage were measured over 4 hours and compared to control. Any number positive over control indicates % injury greater than control acini.

[4] = tested on: ob/ob mice with severe pancreatitis; assay: Caerulein-induced severe pancreatitis in obese ob/ob mice; details: 20 mg/kg single intraperitoneal dose
Method: Genetically obese male ob/ob mice (50-60 gm) were used and baseline tail vein blood draw was collected for serum lipase, triglycerides, and BUN (blood urea nitrogen). […] Severe pancreatitis was induced by implanting an alzet pump subcutaneously containing 2.5 mg/ml caerulein, which was administered at a dose of 50 mc/kg/hr. Six hours later a tail vein sample (50 microliters) was tested for serum lipase to verify an increase >3 fold basal.
Animals were sacrificed if they were moribund.

[5] = target: T1, recombinant human pancreatic tri-acyl glycerol lipase [PNLIP; hPTL] (Homo sapiens, UniProt P16233); assay: FFA generation from glyceryl trilinoleate by recombinant hPNLIP with colipase; type: biochemical
T1 sequence (P16233 17-465): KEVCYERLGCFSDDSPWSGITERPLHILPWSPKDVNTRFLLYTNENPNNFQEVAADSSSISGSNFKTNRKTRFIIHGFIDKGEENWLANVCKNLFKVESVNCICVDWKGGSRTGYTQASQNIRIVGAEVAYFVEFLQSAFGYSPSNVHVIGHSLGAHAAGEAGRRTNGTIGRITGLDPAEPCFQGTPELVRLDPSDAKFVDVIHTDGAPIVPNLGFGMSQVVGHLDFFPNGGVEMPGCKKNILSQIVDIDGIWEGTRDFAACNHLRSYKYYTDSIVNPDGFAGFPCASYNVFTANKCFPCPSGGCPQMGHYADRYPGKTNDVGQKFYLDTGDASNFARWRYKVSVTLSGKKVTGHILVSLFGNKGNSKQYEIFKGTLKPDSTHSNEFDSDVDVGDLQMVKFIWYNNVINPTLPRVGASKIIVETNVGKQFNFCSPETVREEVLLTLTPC
T1 sequence (P04118 23-112 partner): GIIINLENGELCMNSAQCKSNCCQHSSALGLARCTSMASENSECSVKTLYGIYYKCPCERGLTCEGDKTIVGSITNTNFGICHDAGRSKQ
Method: (§2) The efficacy of a selection of the prepared analogs was explored to determine their ability to inhibit free fatty acid (FFA) generation from recombinant human lipases while retaining stability. To test these features, the analogs were dissolved in ethanol (200 mM stock) and further diluted to a 600 micromolar (0.3% ethanol) working stock in PBS. The agents were incubated with the recombinant enzymes in serial ⅓ dilutions spanning a range of 200 to 0.3 micromolar for 30 minutes, and then added to the substrate 1 mM glyceryl trilinoleate (GTL) in PBS, pH 7.4 along with cofactor colipase (CLPS; 0.5 mcg/ml).

pancreatic lysate lipase = target: T2, pancreatic lysate lipase (Mus musculus, UniProt Q6P8U6); assay: Lipase activity assay with pancreatic lysate (commercial Pointe scientific lipase assay); type: biochemical
T2 construct: efficacy against mouse pancreatic lysates; other: summary of strengths of 767; efficacy as a solution when left overnight; other: solution left overnight; efficacy in the lipase activity assay compared with orlistat when fresh; other: fresh solution; IC50 of orlistat after overnight incubation (nearest tested concentration); other: after overnight incubation; improvement in stability and e
T2 sequence (Q6P8U6 17-465): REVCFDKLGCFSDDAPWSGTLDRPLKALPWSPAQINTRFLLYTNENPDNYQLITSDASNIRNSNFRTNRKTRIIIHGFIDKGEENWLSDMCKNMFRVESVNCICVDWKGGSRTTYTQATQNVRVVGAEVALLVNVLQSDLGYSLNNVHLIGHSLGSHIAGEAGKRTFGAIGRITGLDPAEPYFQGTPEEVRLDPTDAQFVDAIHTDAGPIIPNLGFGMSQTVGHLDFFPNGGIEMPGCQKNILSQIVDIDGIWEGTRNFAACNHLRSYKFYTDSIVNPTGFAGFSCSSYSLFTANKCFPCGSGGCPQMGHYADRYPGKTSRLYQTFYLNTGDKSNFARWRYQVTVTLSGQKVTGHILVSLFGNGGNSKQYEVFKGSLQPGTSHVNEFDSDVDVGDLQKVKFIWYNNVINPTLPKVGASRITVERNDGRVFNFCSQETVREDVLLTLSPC
Method: To test the efficacy of these compounds, the agents were dissolved as a 20 mM stock in ethanol, and further diluted to in PBS as a 600 micromolar working stock (3.3% ethanol). This was either used immediately or left at room temperature for 16-20 hours overnight before retesting efficacy. The agents were incubated with a pancreatic lysate in serial ⅓ dilutions spanning a range of 200 to 0.3 micromolars for 30 minutes. 5 microliters of these mixtures were then used to measure lipase activity using a commercial lipase assay (Pointe scientific) containing a monoacyl glycerol lipase in the reagent. The lipase assay was done using reagents in proportion to the recommended protocol. Values were depicted as % maximal lipase activity of the well without any inhibitor.

[6] = target: T3, recombinant human pancreatic lipase related protein 2 (hPLRP2) (Homo sapiens, UniProt P54317); assay: FFA generation by recombinant hPLRP2; type: biochemical; details: % FFA generation; read-out: IC50 against hPLRP2
T3 sequence (P54317 18-469): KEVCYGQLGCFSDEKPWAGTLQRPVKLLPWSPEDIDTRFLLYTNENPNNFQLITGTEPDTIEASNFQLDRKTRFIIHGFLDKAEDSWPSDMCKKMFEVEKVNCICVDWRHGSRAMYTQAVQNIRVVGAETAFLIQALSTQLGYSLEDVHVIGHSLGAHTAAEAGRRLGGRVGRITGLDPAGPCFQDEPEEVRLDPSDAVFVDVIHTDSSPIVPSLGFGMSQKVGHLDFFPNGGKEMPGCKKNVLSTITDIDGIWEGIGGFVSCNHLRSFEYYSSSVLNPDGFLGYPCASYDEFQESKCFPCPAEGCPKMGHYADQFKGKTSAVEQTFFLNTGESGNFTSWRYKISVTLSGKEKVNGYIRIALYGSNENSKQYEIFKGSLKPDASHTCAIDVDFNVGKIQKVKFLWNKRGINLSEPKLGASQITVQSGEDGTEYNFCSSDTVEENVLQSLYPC
Method: as §2, §1

[7] = target: T4, carboxyester lipase (hCEL) (Homo sapiens, UniProt P19835); assay: FFA generation by recombinant hCEL; type: biochemical; details: % FFA generation; read-out: IC50 against hCEL
T4 sequence (P19835 21-753): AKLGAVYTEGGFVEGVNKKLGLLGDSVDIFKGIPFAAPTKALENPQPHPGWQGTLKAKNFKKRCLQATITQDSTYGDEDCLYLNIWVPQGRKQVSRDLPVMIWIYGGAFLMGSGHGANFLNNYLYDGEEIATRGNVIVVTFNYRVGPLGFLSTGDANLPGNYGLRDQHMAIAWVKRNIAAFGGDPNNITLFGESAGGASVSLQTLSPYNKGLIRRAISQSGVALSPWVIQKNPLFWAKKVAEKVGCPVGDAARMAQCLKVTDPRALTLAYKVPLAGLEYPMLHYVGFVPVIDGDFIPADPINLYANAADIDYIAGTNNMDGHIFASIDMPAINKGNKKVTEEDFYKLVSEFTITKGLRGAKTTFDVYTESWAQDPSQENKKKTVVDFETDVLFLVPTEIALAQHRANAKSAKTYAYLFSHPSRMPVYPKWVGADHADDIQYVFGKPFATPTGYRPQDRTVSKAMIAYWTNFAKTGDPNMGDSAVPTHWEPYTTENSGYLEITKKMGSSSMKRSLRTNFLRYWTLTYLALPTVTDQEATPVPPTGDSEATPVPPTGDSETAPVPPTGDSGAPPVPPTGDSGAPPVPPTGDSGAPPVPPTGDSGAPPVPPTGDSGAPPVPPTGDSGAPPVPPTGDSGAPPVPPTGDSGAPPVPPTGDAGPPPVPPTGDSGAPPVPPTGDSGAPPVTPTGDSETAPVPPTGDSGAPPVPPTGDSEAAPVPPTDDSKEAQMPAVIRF
Method: as §2, §1

CCCCCCCCCCC[C@@H](C[C@@H]1OC(=O)[C@H]1CC)OC(=O)[C@H](C)NC=O [Compound 767]
lipolysis by P. acnes [1]: inhibited
efficacy in reducing GTL induced acinar injury compared with orlistat ([2]; LDH leakage): more efficacious
toxicity compared with orlistat ([2]; acinar cells): less toxic
toxicity to acinar cells [3]: lower toxicity
5 day survival [4]: 8/8
PD (pulse distention, shock) [4]: 290±20 μm
UFAs [4]: 2.4 ± 0.4 mM
hypertriglyceridemia [4]: without the hypertriglyceridemia
leucopenia (mice affected) [4]: 0/8
serum calcium [4]: 8.8 ± 1.0 mg/dL
temperature (hypothermia) [4]: 94.1±0.8 ° F.
BUN (peak) ([4]; caerulein pancreatitis): 18.5 ± 0.9 mg/dL
IC50 against hPNLIP, fold lower than orlistat or 741 ([5]; in the presence of colipase (CLPS), 1 mM GTL substrate): 50 ×
stability in aqueous solution ([5]; retention of inhibition after overnight storage): best stability; also recorded: better stability in aqueous media
IC50 ([5]; solution stored overnight, with colipase, read-out: IC50 against hPNLIP when stored overnight): < 2 µM
potency against the most prevalent lipase (hPTL) ([5]; summary of strengths of 767): higher potency
efficacy in the lipase activity assay compared with orlistat when fresh (pancreatic lysate lipase; fresh solution): equivalent efficacy
efficacy as a solution when left overnight (pancreatic lysate lipase; solution left overnight): significantly retained its efficacy
efficacy against mouse pancreatic lysates (pancreatic lysate lipase; summary of strengths of 767): higher efficacy
IC50 [6]: ≤ 2 µM
IC50 [7]: ≤ 2 µM
